Results taken from patent US20260000079A1, “COMPOSITIONS AND METHODS FOR MODULATING IMMUNITY IN PLANTS” (BOYCE THOMPSON INSTITUTE FOR PLANT RESEARCH, INC., priority 2019, published 2026).

Columns and labels:
Arabidopsis leaves = assay: LC-MS time course of Arabidopsis leaves infiltrated with ascr #18; format: in vivo, Arabidopsis thaliana; conditions: Arabidopsis leaves infiltrated with 1 μM ascr #18
Text: FIG. 2A provides LC-MS analysis of tomato roots treated with ascr #18 or ^13C2-labeled ascr #18. Plants treated with ^13C2-labeled ascr #18 show peaks at 333.21932 and 249.12542, representing [M-H]^− of ^13C2-ascr #18 and ^13C2-ascr #9, but not at 331.21261 and 247.11871, which correspond to [M-H]^− of ascr #18 and ascr #9, and vice versa. Structures of ascr #18 and ascr #9 indicating the positions of the ^13C2-label are shown above ion chromatograms. Peaks marked with an asterisk represent unrelated peaks. FIGS. 2B and 2C provide graphs showing the relative abundances of ascr #18 and ascr #9, respectively, as measured by LC-MS. Four-week old Arabidopsis leaves were infiltrated with 1 μM ascr #18, and leaf tissue were harvested for LC-MS analyses over a period of 96 hours post infiltration of ascr #18. Data are averages±SEM (n=3). FIG. 2D provides LC-MS analyses of tomato leaves infiltrated with 1 μM ascr #18. Tissues were collected over a 12 hour period. Abundances of ascr #18 and ascr #9 are shown as the peak area, as measured by LC-MS. […] To test whether microbes are required for the observed metabolic transformations, leaves of 4-week old Arabidopsis plants were directly infiltrated with ascr #18 and leaf tissue was subsequently harvested for analysis by LC-MS as above. […] About 50% of ascr #18 was metabolized during the first 12 hours, during which time concomitant accumulation of ascr #9 was observed. Formation of ascr #9 was also observed in leaves of 4-week old tomato plants infiltrated with ascr #18 (FIG. 2D).

tomato root exudates = assay: LC-MS of root exudates and growth media of ascr #18-treated tomato seedlings; format: in vivo, Solanum lycopersicum
Protocol: Data are average±SEM (n=6), n.d.=not detected. […] Exudates from approximately 40 seedlings were collected in distilled water and pooled. Abundances of ascarosides are shown as the peak area, as measured by LC-MS. Data are average±SEM (n=3); n.d.=not detected. FIGS. 5C and 5D show the relative abundances of ascarosides in root exudates of eight-day old tomato seedlings treated with 10 nM (FIG. 5C) or 1000 nM (FIG. 5D) ascr #18 for 6 hours. Exudates from approximately 10 seedlings were collected in distilled water and pooled. Abundances of ascarosides are shown as the peak area, as measured by LC-MS. Data are average±SEM (n=3); n.d.=not detected. FIG. 5E provides the relative abundances of ascr #10, ascr #1, and ascr #9 in the growth media of eight-day old tomato seedlings supplemented with 1 μM ascr #18. Ten-gram media samples were collected at different time points over a 48 hour period for metabolome extraction. Abundances of ascarosides are shown as the peak area, as measured by LC-MS.
To test this possibility, root-secreted metabolites of ascr #18- and mock-treated Arabidopsis were compared (FIG. 5A). For this experiment, 10-day old Arabidopsis seedlings were treated in growth media supplemented with ascr #18 for 6 hours prior to collection of exudates from roots submerged in water. […] Analogous results were obtained in experiments with tomato roots (FIG. 5C, 5D).

[1] = tested on: defense-response genes in Arabidopsis leaves; assay: qRT-PCR of defense-response genes in Arabidopsis leaves after root treatment; format: in vivo, Arabidopsis thaliana; conditions: leaves 24 hours after root treatment with 1 μM
Protocol: FIG. 4A provides a schematic of the experimental designs for assessing activation of defense pathways and resistance to nematodes and bacteria. […] Bacterial growth was assayed 3 days post inoculation. Data are averages±s.d. (n=17). […] Arabidopsis seedlings were treated with buffer or the indicated concentrations of ascr #18 for 48 hours before inoculation with approximately 300 freshly hatched M. incognita J2 larvae. The numbers of root galls of infected plants were counted 6 weeks post inoculation. Data are averages±s.d. (n≥15). […] Arabidopsis seedlings were treated with the indicated concentrations of ascr #18 for 48 hours before transfer into 12-well plates containing Pluronic® F-127 gel with ˜200 freshly hatched M. incognita J2 larvae. Larvae touching root tips (FIG. 4D) or the whole area of roots (FIG. 4E) were counted at 6 hours post seedling transfer. Data are average±s.d. (n=12). […] Transcript levels were determined by qRT-PCR and plotted as relative fold-change compared to mock treated plants. Data are averages±s.d (n≥6). *P≤0.05; **P≤0.005; ***P≤0.0005; two-tailed t-test.
For each replicate, total RNA from Arabidopsis leaves were isolated from a pool of one leaf from each of three plants. For the seedling RNA analyses, Arabidopsis roots were collected from 30-40 seedlings for each replicates. Total RNA was isolated using Qiagen RNeasy® Plant Mini Kit (Qiagen) according to the manufacturer's instructions. DNAse treatment was done using DNA-Free™ Kit (Ambion) following the manufacturer's instructions. […]
For quantitative real-time PCR (qRT-PCR), transcripts were amplified using SYBR® Premix Ex-Taq™ (Takara) from 2.5 μL of 5×-diluted cDNA in a total 20 μL reaction using 0.1 μL of 100 μM gene-specific primers. […] The relative fold change was calculated according to the 2-ΔΔCt method (Manosalva, et al. (2015) Nat. Commun. 6:7795; Floss, et al. (2013) Proc. Natl. Acad. Sci. 110: E5025-34). […]
Next, it was determined whether differences in activation of defense signaling in wildtype and acx1acx5 plants underlie the observed differences in resistance to nematodes. […]

Structure (SMILES) | time of peak ascr #9 concentration post-infiltration (Arabidopsis leaves) | ascr #9 concentration at 96 hours (Arabidopsis leaves; 96 hours) | relative abundance among root-excreted ascr #18 metabolites (tomato root exudates) | ascr #18 metabolized (Arabidopsis leaves; first 12 hours) | induction of MAPK-related FRK1 ([1]; acx1acx5 vs wildtype) | induction of jasmonic acid signaling genes (PDF1.2, AOS, LOX2) ([1]; wildtype vs acx1acx5) | induction of salicylic acid signaling genes (PR-1, PR-4) ([1]; wildtype vs acx1acx5)
C[C@H](CCC(=O)O)O[C@@H]1O[C@@H](C)[C@H](O)C[C@H]1O [ascr #9] | ≤ 12 h | very low levels | most abundant | – | – | – | –
CC1O[C@@H](O[C@@H](C)CCCCCCCCC(=O)O)C(O)C[C@H]1O (stereo in doubt) [ascr #18, (10R)-(3′R,5′R-dihydroxy-6′S-methyl-(2H)-tetrahydropyran-2-yloxy)-undecanoic acid] | – | – | – | About 50% | slightly weaker in the mutant | to similar extents | to similar extents
